26 molecules from patent US20090291938A1 (TAKEDA PHARMACEUTICAL COMPANY LIMITED, priority 2007, published 2009) can be followed below.

For this assay, the system named is HT29 human colorectal adenocarcinoma cell line. The experiment in a line: cell proliferation assay (Cell Titer-Glo luminescent cell viability assay). To be noted: HT-29, cell proliferative assay, HT29 cells, 72 hr treatment, values given as ranges, read-out: pIC50 (converted). Format: cell-based. An outline of the steps:
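Cells grown in DMEM with 10% FBS and exposed to compounds for 72 h. Viability read by CellTiter-Glo luminescence, expressed as percentage of DMSO-treated cells.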
Regarding `COc1cc(C(=O)NN2CCN(C)CC2)ccc1Nc1ncc2c(n1)N(C1CCCCC1)CC(C)(C)C(=O)N2C` [Compound 112, 4-(9-cyclohexyl-5,7,7-trimethyl-6-oxo-6,7,8,9-tetrahydro-5H-pyrimido[4,5-b][1,4]diazepin-2-ylamino)-3-methoxy-N-(4-methylpiperazin-1-yl)benzamide], the IC50 was 1 to 2.51 nM.
The figure for `COc1cc(C(=O)NC[C@H]2CCCNC2)ccc1Nc1ncc2c(n1)N(C1CCCC1)CCC(=O)N2C` [Compound 64, (S)-4-(9-cyclopentyl-5-methyl-6-oxo-6,7,8,9-tetrahydro-5H-pyrimido[4,5-b][1,4]diazepin-2-ylamino)-3-methoxy-N-(piperidin-3-ylmethyl)benzamide] is above 10 nM; for `C/C=C/CC1CN(C2CCCC2)c2nc(Nc3ccc(C(=O)NC4CCN(C)CC4)cc3OC)ncc2N(C)C1=O` (centres unmarked) [Compound 220, (E)-4-(7-(but-2-enyl)-9-cyclopentyl-5-methyl-6-oxo-6,7,8,9-tetrahydro-5H-pyrimido[4,5-b][1,4]diazepin-2-ylamino)-3-methoxy-N-(1-methylpiperidin-4-yl)benzamide] it is 3.16 to 10 nM.
To `COc1cc(C(=O)N[C@@H]2CCNC2)ccc1Nc1ncc2c(n1)N(C1CCCC1)CCC(=O)N2C` [Compound 41, (R)-4-(9-cyclopentyl-5-methyl-6-oxo-6,7,8,9-tetrahydro-5H-pyrimido[4,5-b][1,4]diazepin-2-ylamino)-3-methoxy-N-(pyrrolidin-3-yl)benzamide] belongs above 10 nM.
The figure for `C=CC[C@H]1CN(C2CCCC2)c2nc(Nc3ccc(C(=O)N[C@H]4CC[C@H](O)CC4)cc3OC)ncc2N(C)C1=O` [Compound 197, 4-((S)-7-allyl-9-cyclopentyl-5-methyl-6-oxo-6,7,8,9-tetrahydro-5H-pyrimido[4,5-b][1,4]diazepin-2-ylamino)-N-((1R,4R)-4-hydroxycyclohexyl)-3-methoxybenzamide] is below 1 nM.
Consider `COc1cc(C(=O)NCCN2CCCC2)ccc1Nc1ncc2c(n1)N(C1CCCC1)CC(C)(C)C(=O)N2C` [Compound 93, 4-(9-cyclopentyl-5,7,7-trimethyl-6-oxo-6,7,8,9-tetrahydro-5H-pyrimido[4,5-b][1,4]diazepin-2-ylamino)-3-methoxy-N-(2-(pyrrolidin-1-yl)ethyl)benzamide], for which the IC50 was 3.16 to 10 nM.
As for `COc1cc(C(=O)NC2CCN(C)CC2)ccc1Nc1ncc2c(n1)N(C(C)C)CC(C)(C)C(=O)N2C` [Compound 155, 4-(9-isopropyl-5,7,7-trimethyl-6-oxo-6,7,8,9-tetrahydro-5H-pyrimido[4,5-b][1,4]diazepin-2-ylamino)-3-methoxy-N-(1-methylpiperidin-4-yl)benzamide], the IC50 was 3.16 to 10 nM.
The figure for `C=CC[C@H]1CN(C2CCCC2)c2nc(Nc3ccc(C(=O)N[C@H]4CCN(C)C4)cc3OC)ncc2N(C)C1=O` [Compound 205, 4-((S)-7-allyl-9-cyclopentyl-5-methyl-6-oxo-6,7,8,9-tetrahydro-5H-pyrimido[4,5-b][1,4]diazepin-2-ylamino)-3-methoxy-N-((S)-1-methylpyrrolidin-3-yl)benzamide] is below 1 nM.
To `C=CC1(C)CN(C2CCCC2)c2nc(Nc3ccc(C(=O)N[C@H]4CCCNC4)cc3OC)ncc2N(C)C1=O` (stereo partly drawn) [Compound 246, 4-(9-cyclopentyl-5,7-dimethyl-6-oxo-7-vinyl-6,7,8,9-tetrahydro-5H-pyrimido[4,5-b][1,4]diazepin-2-ylamino)-3-methoxy-N-((S)-piperidin-3-yl)benzamide] belongs 1 to 2.51 nM.
To `COc1cc(C(=O)NCCNC(C)=O)ccc1Nc1ncc2c(n1)N(C1CCCC1)CCC(=O)N2C` [Compound 43, N-(2-acetamidoethyl)-4-(9-cyclopentyl-5-methyl-6-oxo-6,7,8,9-tetrahydro-5H-pyrimido[4,5-b][1,4]diazepin-2-ylamino)-3-methoxybenzamide] belongs above 10 nM; to `COc1cc(C(=O)NN2CCN(C)CC2)ccc1Nc1ncc2c(n1)N(C1CCCC1)CC1(CCC1)C(=O)N2C` [Compound 180, 4-(9′-cyclopentyl-5′-methyl-6′-oxo-5′,6′,8′,9′-tetrahydrospiro[cyclobutane-1,7′-pyrimido[4,5-b][1,4]diazepine]-2′-ylamino)-3-methoxy-N-(4-methylpiperazin-1-yl)benzamide], below 1 nM; to `CCOc1cc(C(=O)NC2CCN(C)CC2)ccc1Nc1ncc2c(n1)N(C1CCCC1)CC(C)(C)C(=O)N2C` [Compound 123, 4-(9-cyclopentyl-5,7,7-trimethyl-6-oxo-6,7,8,9-tetrahydro-5H-pyrimido[4,5-b][1,4]diazepin-2-ylamino)-3-ethoxy-N-(1-methylpiperidin-4-yl)benzamide], below 1 nM.
With `COc1cc(C(=O)NC2CCN(C)CC2)ccc1Nc1ncc2c(n1)N(C1CCCC1)CC1(CC1)C(=O)N2C` [Compound 33, 4-(9′-cyclopentyl-5′-methyl-6′-oxo-5′,6′,8′,9′-tetrahydrospiro[cyclopropane-1,7′-pyrimido[4,5-b][1,4]diazepine]-2′-ylamino)-3-methoxy-N-(1-methylpiperidin-4-yl)benzamide], the IC50 was 1 to 2.51 nM.
To `COc1cc(C(=O)N[C@H]2CCN(C)C2)ccc1Nc1ncc2c(n1)N(C1CCCC1)CC(C)(C)C(=O)N2C` [Compound 97, (S)-4-(9-cyclopentyl-5,7,7-trimethyl-6-oxo-6,7,8,9-tetrahydro-5H-pyrimido[4,5-b][1,4]diazepin-2-ylamino)-3-methoxy-N-(1-methylpyrrolidin-3-yl)benzamide] belongs 1 to 2.51 nM; to `COc1cc(C(=O)NCCCN2CCCC2=O)ccc1Nc1ncc2c(n1)N(C1CCCC1)CCC(=O)N2C` [Compound 38, 4-(9-cyclopentyl-5-methyl-6-oxo-6,7,8,9-tetrahydro-5H-pyrimido[4,5-b][1,4]diazepin-2-ylamino)-3-methoxy-N-(3-(2-oxopyrrolidin-1-yl)propyl)benzamide], 3.16 to 10 nM; to `COc1cc(C(=O)NC2CCN(C(=O)C3CC3)CC2)ccc1Nc1ncc2c(n1)N(C1CCCC1)CCC(=O)N2C` [Compound 73], above 10 nM.
The figure for `C=CC[C@H]1CN(C2CCCC2)c2nc(Nc3ccc(C(=O)NN4CCN(C)CC4)cc3OC)ncc2N(C)C1=O` [Compound 206, (S)-4-(7-allyl-9-cyclopentyl-5-methyl-6-oxo-6,7,8,9-tetrahydro-5H-pyrimido[4,5-b][1,4]diazepin-2-ylamino)-3-methoxy-N-(4-methylpiperazin-1-yl)benzamide] is below 1 nM; for `C=CCC1CN(C2CCCCC2)c2nc(Nc3ccc(C(=O)N[C@@H]4CCN(C)C4)cc3OC)ncc2N(C)C1=O` (stereo partly drawn) [Compound 230, 4-(7-allyl-9-cyclohexyl-5-methyl-6-oxo-6,7,8,9-tetrahydro-5H-pyrimido[4,5-b][1,4]diazepin-2-ylamino)-3-methoxy-N-((R)-1-methylpyrrolidin-3-yl)benzamide] it is above 10 nM; for `COc1cc(C(=O)NCc2ccncc2)ccc1Nc1ncc2c(n1)N(C1CCCC1)CCC(=O)N2C` [Compound 71, 4-(9-cyclopentyl-5-methyl-6-oxo-6,7,8,9-tetrahydro-5H-pyrimido[4,5-b][1,4]diazepin-2-ylamino)-3-methoxy-N-(pyridin-4-ylmethyl)benzamide] it is 3.16 to 10 nM.
The figure for `C=CCC1CN(C2CCCCC2)c2nc(Nc3ccc(C(=O)NN4CCN(C)CC4)cc3OC)ncc2N(C)C1=O` (centres unmarked) [Compound 226, 4-(7-allyl-9-cyclohexyl-5-methyl-6-oxo-6,7,8,9-tetrahydro-5H-pyrimido[4,5-b][1,4]diazepin-2-ylamino)-3-methoxy-N-(4-methylpiperazin-1-yl)benzamide] is 1 to 2.51 nM; for `C=CC[C@H]1CN(C2CCCC2)c2nc(Nc3ccc(C(=O)N[C@H]4CCCNC4)cc3OC)ncc2N(C)C1=O` [Compound 201, 4-((S)-7-allyl-9-cyclopentyl-5-methyl-6-oxo-6,7,8,9-tetrahydro-5H-pyrimido[4,5-b][1,4]diazepin-2-ylamino)-3-methoxy-N-((S)-piperidin-3-yl)benzamide] it is 1 to 2.51 nM.
For the molecule `CCC1(C)CN(C2CCCCC2)c2nc(Nc3ccc(C(=O)NC4CN(C)C4)cc3OC)ncc2N(C)C1=O` (centres unmarked) [Compound 140, 4-(9-cyclohexyl-7-ethyl-5,7-dimethyl-6-oxo-6,7,8,9-tetrahydro-5H-pyrimido[4,5-b][1,4]diazepin-2-ylamino)-3-methoxy-N-(1-methylazetidin-3-yl)benzamide], the IC50 is 3.16 to 10 nM.
Turning to `C=CC1(C)CN(C2CCCC2)c2nc(Nc3ccc(C(=O)NC4CCN(C)CC4)cc3OC)ncc2N(C)C1=O` (centres unmarked) [Compound 239, 4-(9-cyclopentyl-5,7-dimethyl-6-oxo-7-vinyl-6,7,8,9-tetrahydro-5H-pyrimido[4,5-b][1,4]diazepin-2-ylamino)-3-methoxy-N-(1-methylpiperidin-4-yl)benzamide], the IC50 was 3.16 to 10 nM.
The figure for `COc1cc(C(=O)NC[C@H]2CCCN2)ccc1Nc1ncc2c(n1)N(C1CCCC1)CCC(=O)N2C` [Compound 62, (R)-4-(9-cyclopentyl-5-methyl-6-oxo-6,7,8,9-tetrahydro-5H-pyrimido[4,5-b][1,4]diazepin-2-ylamino)-3-methoxy-N-(pyrrolidin-2-ylmethyl)benzamide] is above 10 nM.
The figure for `COc1cc(C(=O)N[C@@H]2CCCNC2)ccc1Nc1ncc2c(n1)N(C1CCCCC1)CC1(CC1)C(=O)N2C` [Compound 175, (R)-4-(9′-cyclohexyl-5′-methyl-6′-oxo-5′,6′,8′,9′-tetrahydrospiro [cyclopropane-1,7′-pyrimido[4,5-b][1,4]diazepine]-2′-ylamino)-3-methoxy-N-(piperidin-3-yl)benzamide] is below 1 nM; for `CCCOc1cc(C(=O)NC2CCN(C)CC2)ccc1Nc1ncc2c(n1)N(C1CCCC1)CC(C)(C)C(=O)N2C` [Compound 124, 4-(9-cyclopentyl-5,7,7-trimethyl-6-oxo-6,7,8,9-tetrahydro-5H-pyrimido[4,5-b][1,4]diazepin-2-ylamino)-N-(1-methylpiperidin-4-yl)-3-propoxybenzamide] it is above 10 nM.
